Active and inactive are the calls of the source. The rule behind the calls is not given here.
Assays:
NCI-H23 = experiment: Growth inhibition of human NCI-H23 cells after 48 hrs by SRB assay; type: functional; settings: NCI-H23, 48 h
MDA-MB-468 = experiment: Growth inhibition of human MDA-MB-468 cells after 48 hrs by SRB assay; type: functional; settings: MDA-MB-468, 48 h
Malme-3M = experiment: Growth inhibition of human MALME-3M cells after 48 hrs by SRB assay; type: functional
COLO 205 = experiment: Growth inhibition of human COLO205 cells after 48 hrs by SRB assay; type: functional; settings: COLO 205, 48 h
[1] = Growth inhibition of human MOLT4 cells after 48 hrs by SRB assay; type: functional; settings: MOLT-4, 48 h
[2] = Growth inhibition of human RXF393 cells after 48 hrs by SRB assay; type: functional; settings: RXF 393, 48 h
K562 = experiment: Growth inhibition of human K562 cells after 48 hrs by SRB assay; type: functional; settings: K562, 48 h
786-0 = experiment: Growth inhibition of human 786-0 cells after 48 hrs by SRB assay; type: functional; settings: 786-0, 48 h
[3] = Growth inhibition of human UO31 cells after 48 hrs by SRB assay; type: functional; settings: UO-31, 48 h
NCI-H522 = experiment: Growth inhibition of human NCI-H522 cells after 48 hrs by SRB assay; type: functional; settings: NCI-H522, 48 h
T47D = experiment: Growth inhibition of human T47D cells after 48 hrs by SRB assay; type: functional
ACHN = experiment: Growth inhibition of human ACHN cells after 48 hrs by SRB assay; type: functional
IGROV-1 = experiment: Growth inhibition of human IGROV1 cells after 48 hrs by SRB assay; type: functional; settings: IGROV-1, 48 h
SK-OV-3 = experiment: Growth inhibition of human SKOV3 cells after 48 hrs by SRB assay; type: functional; settings: SK-OV-3, 48 h
SNB-19 = experiment: Growth inhibition of human SNB19 cells after 48 hrs by SRB assay; type: functional; settings: SNB-19, 48 h
SW-620 = experiment: Growth inhibition of human SW620 cells after 48 hrs by SRB assay; type: functional; settings: SW-620, 48 h
RPMI-8226 = experiment: Growth inhibition of human RPMI8226 cells after 48 hrs by SRB assay; type: functional; settings: RPMI-8226, 48 h
[4] = Growth inhibition of human HOP92 cells after 48 hrs by SRB assay; type: functional; settings: HOP-92, 48 h
SK-MEL-5 = experiment: Growth inhibition of human SK-MEL-5 cells after 48 hrs by SRB assay; type: functional; settings: SK-MEL-5, 48 h
KM12 = experiment: Growth inhibition of human KM12 cells after 48 hrs by SRB assay; type: functional; settings: KM12, 48 h
[5] = Growth inhibition of human HCC2998 cells after 48 hrs by SRB assay; type: functional; settings: HCC 2998, 48 h
[6] = Growth inhibition of human SF295 cells after 48 hrs by SRB assay; type: functional; settings: SF-295, 48 h
SN12C = experiment: Growth inhibition of human SN12C cells after 48 hrs by SRB assay; type: functional
[7] = Growth inhibition of human OVCAR5 cells after 48 hrs by SRB assay; type: functional; settings: OVCAR-5, 48 h
[8] = Growth inhibition of human OVCAR3 cells after 48 hrs by SRB assay; type: functional; settings: OVCAR-3, 48 h
U-251 = experiment: Growth inhibition of human U251 cells after 48 hrs by SRB assay; type: functional; settings: U-251, 48 h
MCF7 [9] = experiment: Growth inhibition of human MCF7 cells assessed as cell viability at 4 uM after 24 hrs by MTT assay; type: functional, cell-based
[10] = Growth inhibition of human UACC62 cells after 48 hrs by SRB assay; type: functional; settings: UACC-62, 48 h
NCI-H322M = experiment: Growth inhibition of human NCI-H322M cells after 48 hrs by SRB assay; type: functional
MCF7 [11] = experiment: Growth inhibition of human MCF7 cells after 48 hrs by SRB assay; type: functional; settings: MCF7, 48 h
NCI-H460 = experiment: Growth inhibition of human NCI-H460 cells after 48 hrs by SRB assay; type: functional; settings: NCI-H460, 48 h
[12] = Growth inhibition of human EKVX cells after 48 hrs by SRB assay; type: functional
TK-10 = experiment: Growth inhibition of human TK10 cells after 48 hrs by SRB assay; type: functional; settings: TK-10, 48 h
[13] = Growth inhibition of human NCI-ADR-RES cells after 48 hrs by SRB assay; type: functional
[14] = Growth inhibition of human HCT15 cells after 48 hrs by SRB assay; type: functional; settings: HCT-15, 48 h
SK-MEL-2 = experiment: Growth inhibition of human SK-MEL-2 cells after 48 hrs by SRB assay; type: functional; settings: SK-MEL-2, 48 h
MDA-MB-231 = experiment: Growth inhibition of human MDA-MB-231 cells after 48 hrs by SRB assay; type: functional; settings: MDA-MB-231, 48 h
[15] = Growth inhibition of human SF539 cells after 48 hrs by SRB assay; type: functional; settings: SF-539, 48 h
A549 = experiment: Growth inhibition of human A549 cells after 48 hrs by SRB assay; type: functional; settings: A549, 48 h
MCF7 [16] = experiment: Cell cycle arrest in human MCF7 cells assessed as accumulation at G2/M phase at 4 uM after 24 hrs by propidium iodide staining-based flow cytometry (reference value: 15.79%); type: functional
[17] = Growth inhibition of human UACC257 cells after 48 hrs by SRB assay; type: functional; settings: UACC-257, 48 h
M14 = experiment: Growth inhibition of human M14 cells after 48 hrs by SRB assay; type: functional; settings: M14, 48 h
MCF7 [18] = experiment: Cell cycle arrest in human MCF7 cells assessed as accumulation at G0/G1 phase at 4 uM after 24 hrs by propidium iodide staining-based flow cytometry (reference value: 64.04%); type: functional
NCI-H226 = experiment: Growth inhibition of human NCI-H226 cells after 48 hrs by SRB assay; type: functional; settings: NCI-H226, 48 h
MCF7 [19] = experiment: Cell cycle arrest in human MCF7 cells assessed as accumulation at S phase at 4 uM after 24 hrs by propidium iodide staining-based flow cytometry (reference value: 20.17%); type: functional
HCT-116 = experiment: Growth inhibition of human HCT116 cells after 48 hrs by SRB assay; type: functional; settings: HCT-116, 48 h
SR = experiment: Growth inhibition of human SR cells after 48 hrs by SRB assay; type: functional
[20] = Growth inhibition of human BT549 cells after 48 hrs by SRB assay; type: functional; settings: BT-549, 48 h
[21] = Growth inhibition of human Hs578T cells after 48 hrs by SRB assay; type: functional; settings: Hs-578T
A498 = experiment: Growth inhibition of human A498 cells after 48 hrs by SRB assay; type: functional; settings: A498, 48 h
CAKI-1 = experiment: Growth inhibition of human Caki1 cells after 48 hrs by SRB assay; type: functional; settings: CAKI-1, 48 h
SNB-75 = experiment: Growth inhibition of human SNB75 cells after 48 hrs by SRB assay; type: functional; settings: SNB-75, 48 h
MDA-MB-435 = experiment: Growth inhibition of human MDA-MB-435 cells after 48 hrs by SRB assay; type: functional; settings: MDA-MB-435, 48 h
HL-60(TB) = experiment: Growth inhibition of human HL-60(TB) cells after 48 hrs by SRB assay; type: functional; settings: HL-60, 48 h
[22] = Growth inhibition of human OVCAR4 cells after 48 hrs by SRB assay; type: functional; settings: OVCAR-4, 48 h
[23] = Growth inhibition of human LOXIMVI cells after 48 hrs by SRB assay; type: functional; settings: LOX IMVI
SK-MEL-28 = experiment: Growth inhibition of human SK-MEL-28 cells after 48 hrs by SRB assay; type: functional; settings: SK-MEL-28, 48 h
DU-145 = experiment: Growth inhibition of human DU145 cells after 48 hrs by SRB assay; type: functional; settings: DU-145, 48 h
HT-29 = experiment: Growth inhibition of human HT-29 cells after 48 hrs by SRB assay; type: functional; settings: HT-29, 48 h
CCRF-CEM = experiment: Growth inhibition of human CCRF-CEM cells after 48 hrs by SRB assay; type: functional
SF-268 = experiment: Growth inhibition of human SF268 cells after 48 hrs by SRB assay; type: functional; settings: SF-268, 48 h
HOP-62 = experiment: Growth inhibition of human HOP62 cells after 48 hrs by SRB assay; type: functional; settings: HOP-62, 48 h
PC-3 = experiment: Growth inhibition of human PC3 cells after 48 hrs by SRB assay; type: functional; settings: PC-3, 48 h
[24] = Growth inhibition of human OVCAR8 cells after 48 hrs by SRB assay; type: functional; settings: OVCAR-8, 48 h

SMILES: COc1ccc(-c2nc3ccccn3c2/C=C/C(=O)c2cc(OC)c(OC)c(OC)c2)cc1
- GI50 (NCI-H23): 3.41 µM
- GI50 (MDA-MB-468): 11.9 µM
- GI50 (Malme-3M): 1.56 µM
- GI50 (COLO 205): 3.5 µM
- GI50 [1]: 32.9 µM
- GI50 [2]: 2.94 µM
- GI50 (K562): 13.1 µM
- GI50 (786-0): 3.9 µM
- GI50 [3]: 1.31 µM
- GI50 (NCI-H522): 3.12 µM
- GI50 (T47D): 2.59 µM
- GI50 (ACHN): 3.26 µM
- GI50 (IGROV-1): 8.86 µM
- GI50 (SK-OV-3): 14.8 µM
- GI50 (SNB-19): 25.2 µM
- GI50 (SW-620): 4.16 µM
- GI50 (RPMI-8226): 7.5 µM
- GI50 [4]: 2.36 µM
- GI50 (SK-MEL-5): 2.72 µM
- GI50 (KM12): 4.99 µM
- GI50 [5]: 8.27 µM
- GI50 [6]: 15.2 µM
- GI50 (SN12C): 11.4 µM
- GI50 [7]: 9.33 µM
- GI50 [8]: 2.88 µM
- GI50 (U-251): 3 µM
- inhibition (MCF7 [9]): Active
- GI50 [10]: 5.58 µM
- GI50 (NCI-H322M): 4.63 µM
- GI50 (MCF7 [11]): 2.38 µM
- GI50 (NCI-H460): 4.09 µM
- GI50 [12]: 7.42 µM
- GI50 (TK-10): 4.16 µM
- GI50 [13]: 3.36 µM
- GI50 [14]: 4.85 µM
- GI50 (SK-MEL-2): 4.95 µM
- GI50 (MDA-MB-231): 5.22 µM
- GI50 [15]: 2.39 µM
- GI50 (A549): 7.96 µM
- Activity (MCF7 [16]): 2.8%
- GI50 [17]: 5.85 µM
- GI50 (M14): 9.8 µM
- Activity (MCF7 [18]): 85.55%
- GI50 (NCI-H226): 24.1 µM
- Activity (MCF7 [19]): 11.65%
- GI50 (HCT-116): 2.26 µM
- GI50 (SR): 3.71 µM
- GI50 [20]: 3.27 µM
- GI50 [21]: 2.89 µM
- GI50 (A498): 10.4 µM
- GI50 (CAKI-1): 8.33 µM
- GI50 (SNB-75): 5.49 µM
- GI50 (MDA-MB-435): 5.76 µM
- GI50 (HL-60(TB)): 34 µM
- GI50 [22]: 5.72 µM
- GI50 [23]: 6.05 µM
- GI50 (SK-MEL-28): 7.1 µM
- GI50 (DU-145): 7.21 µM
- GI50 (HT-29): 4.8 µM
- GI50 (CCRF-CEM): 18.8 µM
- GI50 (SF-268): 4 µM
- GI50 (HOP-62): 3.62 µM
- GI50 (PC-3): 19.8 µM
- GI50 [24]: 3.92 µM
